US7083969B2, “Serratia marcescens strain” (Korea Research Institute of Bioscience and Biotechnology, priority 1997, dated 2006)

Legend:
[1] = system: B lymphocytes; test: Selective cytotoxicity: proportion of B lymphocytes after treatment; type: cell-based, mice; conditions: for Proliferation (%) B cell: proportion of the cells
Text: (§1) Germ-free test animals, mice BDF1 and B6C3F1, obtained from Genetic Resources Center, Korean Research Institute of Bioscience and Biotechnology in the Korean Institute of Science and Technology, were used for the assay of the immunosuppressive activity of prodigiosin. […] At such concentrations as show no cytotoxic effects, prodigiosin cannot suppress the immune response of B lymphocytes. […] This selective immunosuppression for T lymphocytes is not ascribed to the selective cytotoxicity for T lymphocytes. The same immunosuppression results as in the ex vivo experiments were obtained in in vivo experiments. When T lymphocyte activity was measured by use of a graft versus host reaction and a T cell-dependent antibody producing reaction, the prodigiosin suppressed the immune response, but exerted no toxicity on animals. Therefore, the immunosuppressive activity of the prodigiosin is thought to be attributed to the selective suppression for T lymphocyte activity.
Whether the selective immunosuppression of prodigiosin for T cells is attributed to the selective cytotoxicity for T cells or not was assayed by measuring the proportion of the cells. On the third day after treatment of the immune cells with prodigiosin, the number of the cells was counted. Because T lymphocytes consist of CD4 T cell (helper T cell) and CD8 T cell (cytotoxic T cell), the proportion of T and B lymphocytes was calculated in this Example.

[2] = system: B and T lymphocytes; test: T-cell dependent antibody producing reaction in vitro (sheep red blood cells); type: cell-based, mice
Text: as §1
(§2) The influence of prodigiosin on the functions of lymphocytes was measured using three reaction systems. First, the ability of B lymphocyte to proliferate in response to lipopolysaccharide stimulus was assessed. For this, on the third day after stimulation with lipopolysaccharide, the antibody production of the B lymphocyte was measured. When B lymphocytes are stimulated with lipopolysaccharide, they can produce antibodies without the aid of T lymphocyte. Second, a mixed lymphocyte reaction was induced in order to assess the effect on T-cell response. The reaction needs no aids from the B lymphocyte. On the third day after two types of heteroimmune cells, which are different from each other in histocompatibility antigen, were mixed to stimulate the activity of T lymphocytes, the T-cell response-was assessed. Third, the T-cell dependent antibody producing reaction was utilized to assess the effect of prodigiosin on the simultaneous immune response of both of the B and T lymphocytes. This reaction requires the functions of B and T lymphocytes, simultaneously. On the fifth day after immunization of the lymphocytes with the red blood cells of sheep, their antibody production ability was assessed.
(§3) In Table 3, the values are relative to the immune response of the lymphocytes untreated with prodigiosin.

[3] = system: CD8 T lymphocytes; test: Immunosuppressive activity on CD8 T lymphocytes; type: cell-based
[4] = Viability of spleen immune cells cultured in vitro (cytotoxicity); type: cell-based, mice; conditions: mouse, immune cells separated from the spleen, cultured in vitro
Text: as §1
(§4) Immune cells were separated from the spleens of the germ-free animals and cultured in vitro. The cultures were treated with the prodigiosin at various amounts from 3 nM to 30,000 nM and the viability of the cells were measured from the first day to the third day after the treatment. Based on the initial viability of the immune cells, the viabilities of the test groups were calculated. […] So, subsequent experiments for immunoactivity were carried out at not more than 100 nM in order to exclude the cytotoxicity and to measure only the immunosuppressive effect of the prodigiosin.

[5] = system: Immune cells separated from the spleens; test: as above; type: cell-based, mice; conditions: ex vivo experiments
Text: as §1, §4

[6] = Weight ratio of the spleen to the body (toxicity); type: in vivo, mice
Procedure: A T cell-dependent immune response reaction was used to assess the influence of prodigiosin on T lymphocytes in vivo. Test animals were immunized with sheep red blood cells by peritoneal injection. 4 days after the immunization, the number of the antibody producing cells was counted. Prodigiosin was peritoneally injected everyday. Based on the number of the […] cells in the non-treated animals, the influence of prodigiosin on T lymphocytes in vivo was assessed as percentage. Also, the weight ratio of the spleen to the body was measured to assay the toxicity of prodigiosin to the animals. Cyclophosphamide was used as a positive control.

[7] = system: B lymphocyte; test: Lipopolysaccharide-induced B lymphocyte proliferation (DNA synthesis); type: cell-based, mice; conditions: for Proliferation (%) B cell: three days
Text: as §1
Three standard substances which induce lymphocytes to proliferate were employed to measure the effect of the prodigiosin on proliferation of lymphocytes. 5 μg/ml of lipopolysaccharide were used to induce B lymphocyte to proliferate, 5 μg/ml of Concanavalin A for T lymphocyte and 5 μg/ml of Pokeweed mitogen for B and T lymphocytes, both. Prodigiosin was added, together with the proliferation-inducing substance. Three days after the addition, the proliferation effect was monitored by measuring the amount of DNA synthesized. In order to exclude the cytotoxicity of prodigiosin, it was used at a concentration of not more than 100 nM. In Table 2, the proliferation percentages mean the proliferated amounts of prodigiosin-treated lymphocytes relative to that of an non-treated group. As shown, the suppression percentage effected by prodigiosin in amounts of 30–100 nM reaches up to 96–98% for the T lymphocyte induced by concanavalin A while the proliferation of B lymphocyte induced by lipopolysaccharide and the proliferation of B/T lymphocytes induced by pokeweed mitogen are suppressed to the extent of 13–19% and 45–83%, respectively.

[8] = system: T lymphocytes; test: Mixed lymphocyte reaction (T-cell response); type: cell-based, mice; conditions: for Immune Response (%) T cell: third day
Text: as §1, §2, §3

**Q.** Which “Proliferation (%) B cell” value ([1]; 3 nM, third day after treatment) does the source give for CCCCCC1=C/C(=C/c2[nH]c(-c3ccc[nH]3)cc2OC)N=C1C [Prodigiosin, prodigiosin] here?
**A.** 47%

**Q.** And the “Proliferation (%) B cell” value ([1]; 10 nM, third day)?
**A.** 49%

**Q.** And the “Proliferation (%) B cell” value ([1]; 30 nM, third day)?
**A.** 50%

**Q.** And the “Proliferation (%) B cell” value ([1]; 100 nM, third day)?
**A.** 52%

**Q.** And the “selective cytotoxicity for B, CD4 T and CD8 T lymphocytes” value ([1]; B, CD4 T and CD8 T cell proportions, 3-100 nM, third day)?
**A.** no selective cytotoxicity

**Q.** And the “Immune Response (%) B/T cells” value ([2]; 3 nM, antibody production, fifth day after sheep red blood cells, relative to untreated lymphocytes)?
**A.** 81%

**Q.** And the “Immune Response (%) B/T cells” value ([2]; 10 nM, fifth day)?
**A.** 74%

**Q.** And the “Immune Response (%) B/T cells” value ([2]; 30 nM, fifth day)?
**A.** 64%

**Q.** What about the “Immune Response (%) B/T cells” value ([2]; 100 nM, fifth day) of the same molecule?
**A.** 34%

**Q.** And the “immunosuppressive activity on CD8 T lymphocytes” value [3]?
**A.** has an immunosuppressive activity

**Q.** And the viability at 1 day, 0.003 µM ([4]; 3 nM, 1st day after treatment, based on initial viability)?
**A.** 96%

**Q.** And the viability at 2 day, 0.003 µM ([4]; 3 nM, 2nd day after treatment, based on initial viability)?
**A.** 86%

**Q.** What about the viability at 3 day, 0.003 µM ([4]; 3 nM, 3rd day after treatment, based on initial viability) of the same molecule?
**A.** 79%

**Q.** What about the viability at 1 day, 0.01 µM ([4]; 10 nM, 1st day) of the same molecule?
**A.** 89%

**Q.** What about the viability at 2 day, 0.01 µM ([4]; 10 nM, 2nd day) of the same molecule?
**A.** 82%

**Q.** What about the viability at 3 day, 0.01 µM ([4]; 10 nM, 3rd day) of the same molecule?
**A.** 79%

**Q.** What about the viability at 1 day, 0.03 µM ([4]; 30 nM, 1st day) of the same molecule?
**A.** 89%

**Q.** And the viability at 2 day, 0.03 µM ([4]; 30 nM, 2nd day)?
**A.** 70%

**Q.** What about the viability at 3 day, 0.03 µM ([4]; 30 nM, 3rd day) of the same molecule?
**A.** 81%

**Q.** And the viability at 1 day, 0.1 µM ([4]; 100 nM, 1st day)?
**A.** 82%

**Q.** What about the viability at 2 day, 0.1 µM ([4]; 100 nM, 2nd day) of the same molecule?
**A.** 70%

**Q.** What about the viability at 3 day, 0.1 µM ([4]; 100 nM, 3rd day) of the same molecule?
**A.** 70%

**Q.** What about the viability at 1 day, 0.3 µM ([4]; 300 nM, 1st day) of the same molecule?
**A.** 68%

**Q.** What about the viability at 2 day, 0.3 µM ([4]; 300 nM, 2nd day) of the same molecule?
**A.** 14%

**Q.** What about the viability at 3 day, 0.3 µM ([4]; 300 nM, 3rd day) of the same molecule?
**A.** 18%

**Q.** And the viability at 1 day, 1000 nM ([4]; 1,000 nM, 1st day)?
**A.** 74%

**Q.** What about the viability at 2 day, 1000 nM ([4]; 1,000 nM, 2nd day) of the same molecule?
**A.** 14%

**Q.** What about the viability at 3 day, 1000 nM ([4]; 1,000 nM, 3rd day) of the same molecule?
**A.** 14%

**Q.** And the viability at 1 day, 3000 nM ([4]; 3,000 nM, 1st day)?
**A.** 61%

**Q.** And the viability at 2 day, 3000 nM ([4]; 3,000 nM, 2nd day)?
**A.** 9%

**Q.** What about the viability at 3 day, 3000 nM ([4]; 3,000 nM, 3rd day) of the same molecule?
**A.** 8%

**Q.** And the viability at 1 day, 10000 nM ([4]; 10,000 nM, 1st day)?
**A.** 32%

**Q.** And the viability at 2 day, 10000 nM ([4]; 10,000 nM, 2nd day)?
**A.** 4%

**Q.** And the viability at 3 day, 10000 nM ([4]; 10,000 nM, 3rd day)?
**A.** 4%

**Q.** What about the viability at 1 day, 30000 nM ([4]; 30,000 nM, 1st day) of the same molecule?
**A.** 4%

**Q.** What about the viability at 2 day, 30000 nM ([4]; 30,000 nM, 2nd day) of the same molecule?
**A.** 4%

**Q.** And the viability at 3 day, 30000 nM ([4]; 30,000 nM, 3rd day)?
**A.** 4%

**Q.** What about the “concentration with no cytotoxic effects” value [5] of the same molecule?
**A.** less than 100 nM

**Q.** What about the “Wt. Ratio of spleen/body (%)” value ([6]; 10 mg/kg peritoneally everyday) of the same molecule?
**A.** 95%

**Q.** What about the “Wt. Ratio of spleen/body (%)” value ([6]; 30 mg/kg peritoneally everyday) of the same molecule?
**A.** 84%

**Q.** And the “toxicity judged by weight ratio of the spleen to the body” value ([6]; at effective concentrations)?
**A.** no toxicity

**Q.** And the “Proliferation (%) B cell” value ([7]; 3 nM, 5 μg/ml lipopolysaccharide, relative to non-treated group)?
**A.** 101%

**Q.** And the “Proliferation (%) B cell” value ([7]; 10 nM, lipopolysaccharide)?
**A.** 105%

**Q.** And the “Proliferation (%) B cell” value ([7]; 30 nM, lipopolysaccharide)?
**A.** 87%

**Q.** And the “Proliferation (%) B cell” value ([7]; 100 nM, lipopolysaccharide)?
**A.** 81%

**Q.** And the “suppression of proliferation of B lymphocyte induced by lipopolysaccharide” value ([7]; 30–100 nM)?
**A.** 13–19%

**Q.** What about the “effect on proliferation of B lymphocytes” value ([7]; non-cytotoxic concentrations) of the same molecule?
**A.** no influence

**Q.** What about the “Immune Response (%) T cell” value ([8]; 3 nM, mixed lymphocyte reaction, relative to untreated lymphocytes) of the same molecule?
**A.** 111%

**Q.** And the “Immune Response (%) T cell” value ([8]; 10 nM)?
**A.** 110%

**Q.** What about the “Immune Response (%) T cell” value ([8]; 30 nM) of the same molecule?
**A.** 67%

**Q.** What about the “Immune Response (%) T cell” value ([8]; 100 nM) of the same molecule?
**A.** 30%

**Q.** And the “immune response in which T lymphocytes are involved” value ([8]; Table 3 concentration range)?
**A.** significantly suppressed
